Earlier results in patent US20130030007A1, “Obesity Small Molecules” (AKRON MOLECULES GMBH, priority 2010, published 2013).
Non-standard residues stand in square brackets, D forms with d. Residues, ends and D or L forms follow the SMILES beside them. *: point of attachment. Sta = CC(C)C[C@H](N)[C@@H](O)CC(=O)O; Isovaleryl = CC(C)CC(=O)*

system: human ortholog of Drosophila obesity gene; set-up: key: O: Obesity - obesity pathway interaction; B: validated binding partner; settings: cited from earlier work

Row | Compound | Type: Type of interaction
1 | O=S(=O)(F)Cc1ccccc1 [PMSF] | O
2 | O=C1C=C2C(=CCOC2O)O1 (stereo not drawn) [Patulin] | O
3 | CC1=C\[C@H](C)C[C@@]2(C)CC[C@@H](O2)[C@@]23CC[C@@](C)(C[C@@H](O2)[C@H]2O[C@](C)(CC2=O)[C@@H](O)[C@@H]2CC[C@@]4(CCC[C@H](O4)[C@@H](C)C(=O)O[C@@H]4C[C@@H]([C@@]5(O)OCC[C@@H](C)[C@H]5O)O[C@@H]4\C=C\1)O2)O3 [Pectenotoxin II] | B
4 | Cc1c(N)nc([C@H](CC(N)=O)NC[C@H](N)C(N)=O)nc1C(=O)N[C@H](C(=O)N[C@H](C)[C@@H](O)[C@H](C)C(=O)N[C@H](C(=O)NCCc1nc(-c2nc(C(=O)NCCCN[C@@H](C)c3ccccc3)cs2)cs1)[C@@H](C)O)[C@@H](O[C@@H]1O[C@@H](CO)[C@@H](O)[C@H](O)[C@@H]1O[C@H]1O[C@H](CO)[C@@H](O)[C@H](OC(N)=O)[C@@H]1O)c1c[nH]cn1 [Peplomycin] | B
5 | CC(C)CC(=O)N[C@H](C(=O)N[C@H](C(=O)N[C@@H](CC(C)C)[C@@H](O)CC(=O)N[C@@H](C)C(=O)N[C@@H](CC(C)C)[C@@H](O)CC(=O)O)C(C)C)C(C)C [Pepstatin A] (Isovaleryl-VV[Sta]A[Sta]-OH) | O
6 | CCCc1cc(=O)[nH]c(=S)[nH]1 [Procasil] | O
7 | CC(C)OC(=O)C(C)(C)Oc1ccc(C(=O)c2ccc(Cl)cc2)cc1 [Procetofen] | O
8 | CC(=O)[C@@]1(O)CC[C@H]2[C@@H]3CCC4=CC(=O)CC[C@]4(C)[C@H]3CC[C@@]21C [Prodix] | B
9 | CC(C)c1cccc(C(C)C)c1O [Propofol] | B
10 | Cc1cc(O)c2c(=O)c3c(O)cc(O)c4c5c(O)cc(O)c6c(=O)c7c(O)cc(CO)c8c1c2c(c34)c(c65)c78 [Pseudohypericin] | O
11 | O[C@]12C=C(c3nccc4c3[nH]c3ccccc34)[C@@H]3CCN(CCCC/C=C\CC1)C[C@@]31C[C@@H]3/C=C\CCCCN3[C@H]12 [manzamine A] | O
12 | COc1ccc2c(c1)[C@@]13CCCC[C@H]1[C@@H](C2)NCC3 [methoxymorphinan] | O
13 | CO[C@H](C(=O)[C@@H](O)[C@@H](C)O)[C@@H]1Cc2cc3cc(O[C@H]4C[C@@H](O[C@H]5C[C@@H](O)[C@H](O)[C@@H](C)O5)[C@H](O)[C@@H](C)O4)c(C)c(O)c3c(O)c2C(=O)[C@H]1O[C@H]1C[C@@H](O[C@H]2C[C@@H](O[C@H]3C[C@](C)(O)[C@H](O)[C@@H](C)O3)[C@@H](O)[C@@H](C)O2)[C@H](O)[C@@H](C)O1 [mithramycin A] | B
14 | CNCc1nnc2n1-c1ccc(Cl)cc1C(c1ccccc1)=NC2 [mono-N-demethyladinazolam] | O
15 | C[C@@H]1C[C@H]2O[C@@H]2/C=C\C=C\C(=O)Cc2cc(O)cc(O)c2C(=O)O1 [monocillin I] | O
16 | CN1CC[C@]23c4c5ccc(O[C@@H]6O[C@H](C(=O)O)[C@@H](O)[C@H](O)[C@H]6O)c4O[C@H]2[C@@H](O)C=C[C@H]3[C@H]1C5 [morphine-3-glucuronide] | B
17 | CC1CC(=O)NN=C1c1cc(-n2ccnc2)cs1 (stereo not drawn) [motapizone] | O
18 | Oc1ccc2c3c1O[C@H]1c4[nH]c5ccccc5c4C[C@@]4(O)[C@@H](C2)N(CC2CC2)CC[C@]314 [naltrindole] | B
19 | CO[C@H]1CC[C@@H](O[C@H]2C[C@H]([C@]3(C)CC[C@]4(C[C@H](O)[C@@H](C)[C@@H]([C@@H](C)/C=C(\C)C(=O)[C@H](C)C[C@H](C)C(=O)O)O4)O3)O[C@]3(O[C@@H]([C@H]4O[C@@](O)(CO)[C@H](C)C[C@@H]4C)C[C@@H]3C)[C@@H]2C)O[C@@H]1C [nanchangmycin] | O
20 | [NH2][Pt]1([NH2])[O]CC(=O)[O]1 [nedaplatin] | O
21 | O=C1OC(=O)[C@H]2[C@@H]1[C@@H]1CC[C@H]2O1 [norcantharidin] | B
22 | O=C1NC(=O)C2C3C=CC(C3)C12 (stereo not drawn) [noreximide] | O
23 | Oc1ccc(CC2NCCc3cc(O)c(O)cc32)cc1O (stereo not drawn) [norlaudanosoline] | B
24 | C[C@@H]1Cc2c(Cl)cc(C(=O)N[C@@H](Cc3ccccc3)C(=O)O)c(O)c2C(=O)O1 [ochratoxin A] | O
25 | O=C(O[C@H]1[C@@H]2OC(=O)c3cc(O)c(O)c(O)c3-c3c4cc(c(O)c3O)Oc3c(cc(O)c(O)c3O)C(=O)O[C@H]3C(O)O[C@@H]5COC(=O)c6cc(O)c(O)c(O)c6-c6c(cc(c(O)c6O)Oc6c(cc(O)c(O)c6O)C(=O)O[C@H]1C(O)O[C@@H]2COC4=O)C(=O)O[C@H]5[C@@H]3OC(=O)c1cc(O)c(O)c(O)c1)c1cc(O)c(O)c(O)c1 (stereo partly drawn) [oenothein B] | B
26 | CO[C@H]1C[C@H](O[C@H]2CC[C@@]3(C)[C@H](CC[C@@H]4[C@@H]3CC[C@]3(C)[C@@H](C5=CC(=O)OC5)[C@@H](OC(C)=O)C[C@]43O)C2)O[C@@H](C)[C@@H]1O [oleandrin] | B
27 | CCCCCCCC/C=C\CCCCCCCC(N)=O [oleylamide] | B
28 | COc1ccc(-c2coc3cc(O)cc(O)c3c2=O)cc1 [olmelin] | B

same assay, conditions: interaction of the small molecule with the human ortholog(s) / Drosophila gene(s) listed in the same table line; cited from earlier work

Row | Compound | Type: Type of interaction
29 | CC(=O)O[C@H]1C(=O)[C@@]2(C)[C@H]([C@H](OC(=O)c3ccccc3)[C@]3(O)C[C@H](OC(=O)[C@H](O)[C@@H](NC(=O)c4ccccc4)c4ccccc4)C(C)=C1C3(C)C)[C@]1(OC(C)=O)CO[C@@H]1C[C@@H]2O [Paclitaxel] | B
30 | Nc1nc2[nH]cc(CCc3ccc(C(=O)N[C@@H](CCC(=O)O)C(=O)O)cc3)c2c(=O)[nH]1 [Pemetrexed] | B
31 | CC(=O)CCCCn1c(=O)c2c(ncn2C)n(C)c1=O [Pentoxifylline] | B
32 | CN1CCN(CCCN2c3ccccc3Sc3ccccc32)CC1 [Perazine] | O
33 | C=C(C)[C@@H]1CC=C(CO)CC1 [Perillol] | B
34 | CCC[C@H](N[C@@H](C)C(=O)N1[C@H](C(=O)O)C[C@@H]2CCCC[C@@H]21)C(=O)OCC [Perindopril] | B
35 | CCC(c1ccccc1)c1c(O)c2ccccc2oc1=O (stereo not drawn) [Phenprocoumon] | O
36 | O=C1NC(=O)C(c2ccccc2)(c2ccccc2)N1 [Phenytoin] | B
37 | CN1C(C(=O)Nc2ccccn2)=C(O)c2ccccc2S1(=O)=O [Piroxicam] | B
38 | COc1cc2nc(N3CCN(C(=O)c4ccco4)CC3)nc(N)c2cc1OC [Prazosin] | O
39 | C[C@]12C=CC(=O)C=C1CC[C@@H]1[C@@H]2C(=O)C[C@@]2(C)[C@H]1CC[C@]2(O)C(=O)CO [Prednisone] | O
40 | CCC1(c2ccccc2)C(=O)NCNC1=O [Primidone] | B
41 | CCCC(C(=O)OCCN(CC)CC)(c1ccccc1)c1ccccc1 [Proadifen] | O
42 | CCC(=O)[C@@]1(C)CC[C@H]2[C@@H]3CCC4=CC(=O)CCC4=C3CC[C@@]21C [Promegestone] | O
43 | CC(=O)N[C@H]1/C(=N/OC(=O)Nc2ccccc2)O[C@H](CO)[C@@H](O)[C@@H]1O [Pugnac] | B
44 | O=C(c1ccc(OCCN2CCCCC2)cc1)c1c(-c2ccc(O)cc2)sc2cc(O)ccc12 [Raloxifene] | B

Row | Compound | Type: Type of interaction
45 | O=c1c(O)c(-c2ccc(O)c(O)c2)oc2cc(O)cc(O)c12 [meletin] | B
46 | Nc1ccc(O)c(C(=O)O)c1 [mesalamine] | B
47 | Cc1cccc(C)c1N(Cn1cccn1)C(=O)CCl [metazachlor] | B
48 | Cc1nc2nc(N)[nH]c(=O)c2nc1[C@@H](C)Nc1ccc(C[C@H](O)[C@H](O)[C@H](O)CO[C@H]2O[C@H](COP(=O)(O)O[C@@H](CCC(=O)O)C(=O)O)[C@@H](O)[C@H]2O)cc1 [methanopterin] | B
49 | Clc1ccc(COC(Cn2ccnc2)c2ccc(Cl)cc2Cl)c(Cl)c1 (stereo not drawn) [miconazole] | O
50 | CCCCN1C[C@H](O)[C@@H](O)[C@H](O)[C@H]1CO [miglustat] | O
51 | CN1CCN2c3ncccc3Cc3ccccc3C2C1 (stereo not drawn) [mirtazapine] | B
52 | CN(C)c1cccc2c(S(=O)(=O)NCCCCCN)cccc12 [monodansylcadaverine] | O
53 | CCOc1cc(N)c(Cl)cc1C(=O)NCC1CN(Cc2ccc(F)cc2)CCO1 (stereo not drawn) [mosapride] | O
54 | CC(C)[C@H]1CC[C@H](C(=O)N[C@H](Cc2ccccc2)C(=O)O)CC1 [nateglinide] | O
55 | CNc1cc(OC)c(C(=O)NC2CCN(Cc3ccccc3)C2C)cc1Cl (stereo not drawn) [nemonapride] | O
56 | O=C1NC(=O)C(Cc2ccc3cc(OCc4ccccc4F)ccc3c2)S1 (stereo not drawn) [netoglitazone] | B
57 | CC(CNC(=O)c1cccnc1)NC(=O)c1cccnc1 (stereo not drawn) [nicaraven] | O
58 | NCCC(Oc1ccc(C(F)(F)F)cc1)c1ccccc1 (stereo not drawn) [norfluoxetine] | B
59 | COc1ccc(CCNCCCC(C#N)(c2ccc(OC)c(OC)c2)C(C)C)cc1OC (stereo not drawn) [norverapamil] | O
60 | CO[C@@H]1[C@@H](OC(N)=O)[C@@H](O)[C@H](Oc2ccc3c(O)c(NC(=O)c4ccc(O)c(CC=C(C)C)c4)c(=O)oc3c2C)OC1(C)C [novobiocin] | O
